# Laboratory results as given in the supplement of paper PMC10307832.
# What was measured:
# Assay in all cases: relative viability (nuclei count vs DMSO), 5 days (fraction); higher = more cells survive
# NCI-H1651 = tested on: NCI-H1651
# How it was run: (§1)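 Medians of duplicate plates are given as relative viability. That measure is the nuclei count in treated wells divided by the count in vehicle wells. Counts were taken on 4× images of lung cancer cell lines in 1536-well plates, 5 days after pin-tool dosing the day after seeding with one drug alone or a fixed anchor-drug dose plus five library-drug doses (not always all listed) in √10 steps.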
# NCI-H1395 = tested on: NCI-H1395
# How it was run: as §1
# NCI-H2087 = tested on: NCI-H2087
# How it was run: as §1
# NCI-H1993 = tested on: NCI-H1993
# How it was run: as §1
# NCI-H647 = tested on: NCI-H647
# How it was run: as §1
# NCI-H3122 = tested on: NCI-H3122
# How it was run: as §1
# NCI-H2342 = tested on: NCI-H2342
# How it was run: as §1
# LXF-289 = tested on: LXF-289
# How it was run: as §1
# CAL-12T = tested on: CAL-12T
# How it was run: as §1
# HOP-62 = tested on: HOP-62
# How it was run: as §1
# NCI-H650 = tested on: NCI-H650
# How it was run: as §1
# LCLC-103H = tested on: LCLC-103H
# How it was run: as §1
# NCI-H2023 = tested on: NCI-H2023
# How it was run: as §1
# COR-L 105 = tested on: COR-L 105
# How it was run: as §1
# SK-MES-1 = tested on: SK-MES-1
# How it was run: as §1
# EPLC-272H = tested on: EPLC-272H
# How it was run: as §1
# RERF-LC-KJ = tested on: RERF-LC-KJ
# How it was run: as §1
# NCI-H596 = tested on: NCI-H596
# How it was run: as §1
# COR-L23 = tested on: COR-L23
# How it was run: as §1
# PC-14 = tested on: PC-14
# How it was run: as §1
# NCI-H2085 = tested on: NCI-H2085
# How it was run: as §1
# A-427 = tested on: A-427
# How it was run: as §1
# NCI-H1975 = tested on: NCI-H1975
# How it was run: as §1
# NCI-H2170 = tested on: NCI-H2170
# How it was run: as §1
compound,measurement,setting,value
CCCCCCCCCCCC1=C(O)C(=O)C=C(O)C1=O [Embelin] + O=C(CCCCCCC(=O)Nc1ccccc1)NO [Vorinostat] (partner 1 µM),relative viability,NCI-H1651; first compound 0.08 µM,0.576
same,relative viability,NCI-H1651; first compound 0.8 µM,0.629
same,relative viability,NCI-H1651; first compound 2.53 µM,0.575
same,relative viability,NCI-H1651; first compound 8 µM,0.59
same,relative viability,NCI-H1395; first compound 0.08 µM,0.615
same,relative viability,NCI-H1395; first compound 0.8 µM,1
same,relative viability,NCI-H1395; first compound 2.53 µM,0.48
same,relative viability,NCI-H1395; first compound 8 µM,0.521
same,relative viability,NCI-H2087; first compound 0.08 µM,0.659
same,relative viability,NCI-H2087; first compound 0.8 µM,0.714
same,relative viability,NCI-H2087; first compound 2.53 µM,0.759
same,relative viability,NCI-H2087; first compound 8 µM,0.744
same,relative viability,NCI-H1993; first compound 0.08 µM,0.825
same,relative viability,NCI-H1993; first compound 0.8 µM,0.772
same,relative viability,NCI-H1993; first compound 2.53 µM,0.764
same,relative viability,NCI-H1993; first compound 8 µM,0.646
same,relative viability,NCI-H647; first compound 0.08 µM,0.58
same,relative viability,NCI-H647; first compound 0.8 µM,0.985
same,relative viability,NCI-H647; first compound 2.53 µM,0.732
same,relative viability,NCI-H647; first compound 8 µM,0.58
same,relative viability,NCI-H3122; first compound 0.08 µM,0.816
same,relative viability,NCI-H3122; first compound 0.8 µM,0.999
same,relative viability,NCI-H3122; first compound 2.53 µM,1.01
same,relative viability,NCI-H3122; first compound 8 µM,0.915
same,relative viability,NCI-H2342; first compound 0.08 µM,0.766
same,relative viability,NCI-H2342; first compound 0.8 µM,0.828
same,relative viability,NCI-H2342; first compound 2.53 µM,0.887
same,relative viability,NCI-H2342; first compound 8 µM,0.73
same,relative viability,LXF-289; first compound 0.08 µM,0.803
same,relative viability,LXF-289; first compound 0.8 µM,0.742
same,relative viability,LXF-289; first compound 2.53 µM,0.715
same,relative viability,LXF-289; first compound 8 µM,0.809
same,relative viability,CAL-12T; first compound 0.08 µM,0.848
same,relative viability,CAL-12T; first compound 0.8 µM,0.779
same,relative viability,CAL-12T; first compound 2.53 µM,0.677
same,relative viability,CAL-12T; first compound 8 µM,0.697
same,relative viability,HOP-62; first compound 0.08 µM,0.634
same,relative viability,HOP-62; first compound 0.8 µM,0.812
same,relative viability,HOP-62; first compound 2.53 µM,0.504
same,relative viability,HOP-62; first compound 8 µM,0.527
same,relative viability,NCI-H650; first compound 0.08 µM,0.393
same,relative viability,NCI-H650; first compound 0.8 µM,0.557
same,relative viability,NCI-H650; first compound 2.53 µM,0.354
same,relative viability,NCI-H650; first compound 8 µM,0.484
same,relative viability,LCLC-103H; first compound 0.08 µM,0.851
same,relative viability,LCLC-103H; first compound 0.8 µM,0.885
same,relative viability,LCLC-103H; first compound 2.53 µM,0.75
same,relative viability,LCLC-103H; first compound 8 µM,0.714
same,relative viability,NCI-H2023; first compound 0.08 µM,0.622
same,relative viability,NCI-H2023; first compound 0.8 µM,0.701
same,relative viability,NCI-H2023; first compound 2.53 µM,0.565
same,relative viability,NCI-H2023; first compound 8 µM,0.392
same,relative viability,COR-L 105; first compound 0.08 µM,0.867
same,relative viability,COR-L 105; first compound 0.8 µM,0.906
same,relative viability,COR-L 105; first compound 2.53 µM,0.904
same,relative viability,COR-L 105; first compound 8 µM,0.787
same,relative viability,SK-MES-1; first compound 0.08 µM,1.1
same,relative viability,SK-MES-1; first compound 0.8 µM,1.2
same,relative viability,SK-MES-1; first compound 2.53 µM,1.1
same,relative viability,SK-MES-1; first compound 8 µM,0.898
same,relative viability,EPLC-272H; first compound 0.08 µM,0.372
same,relative viability,EPLC-272H; first compound 0.8 µM,0.62
same,relative viability,EPLC-272H; first compound 2.53 µM,0.471
same,relative viability,EPLC-272H; first compound 8 µM,0.363
same,relative viability,RERF-LC-KJ; first compound 0.08 µM,0.673
same,relative viability,RERF-LC-KJ; first compound 0.8 µM,0.769
same,relative viability,RERF-LC-KJ; first compound 2.53 µM,0.681
same,relative viability,RERF-LC-KJ; first compound 8 µM,0.603
same,relative viability,NCI-H596; first compound 0.08 µM,0.56
same,relative viability,NCI-H596; first compound 0.8 µM,0.73
same,relative viability,NCI-H596; first compound 2.53 µM,0.667
same,relative viability,NCI-H596; first compound 8 µM,0.495
same,relative viability,COR-L23; first compound 0.08 µM,0.404
same,relative viability,COR-L23; first compound 0.8 µM,0.559
same,relative viability,COR-L23; first compound 2.53 µM,0.386
same,relative viability,COR-L23; first compound 8 µM,0.492
same,relative viability,PC-14; first compound 0.08 µM,0.746
same,relative viability,PC-14; first compound 0.8 µM,0.886
same,relative viability,PC-14; first compound 2.53 µM,0.586
same,relative viability,PC-14; first compound 8 µM,0.948
same,relative viability,NCI-H2085; first compound 0.08 µM,0.742
same,relative viability,NCI-H2085; first compound 0.8 µM,0.932
same,relative viability,NCI-H2085; first compound 2.53 µM,0.807
same,relative viability,NCI-H2085; first compound 8 µM,0.755
same,relative viability,A-427; first compound 0.08 µM,0.856
same,relative viability,A-427; first compound 0.8 µM,0.899
same,relative viability,A-427; first compound 2.53 µM,0.88
same,relative viability,A-427; first compound 8 µM,0.441
same,relative viability,NCI-H1975; first compound 0.08 µM,0.717
same,relative viability,NCI-H1975; first compound 0.8 µM,0.741
same,relative viability,NCI-H1975; first compound 2.53 µM,0.75
same,relative viability,NCI-H1975; first compound 8 µM,0.729
same,relative viability,NCI-H2170; first compound 0.08 µM,0.773
same,relative viability,NCI-H2170; first compound 0.8 µM,0.784
same,relative viability,NCI-H2170; first compound 2.53 µM,0.922
same,relative viability,NCI-H2170; first compound 8 µM,0.754
